Where “and” joins values, the source holds several entries; their conditions need not be identical. Identical values can stand only once.
Assay: xn = mol fraction of the nth substance listed

CC(C)C[P+](C)(CC(C)C)CC(C)C.Cc1ccc(S(=O)(=O)[O-])cc1 + O
Details | viscosity [mPa·s]
293.15 K, 101 kPa, x2 = 0.7599 | 68
293.15 K, 101 kPa, x2 = 0.8779 | 23
293.15 K, 101 kPa, x2 = 0.9283 | 11.6
293.15 K, 101 kPa, x2 = 0.9729 | 4
298.15 K, 100 kPa, x1 = 0.003319 | 1.115
298.15 K, 100 kPa, x1 = 0.00854 | 1.475
308.15 K, 100 kPa, x1 = 0.009239 | 1.175
333.15 K, 100 kPa, x1 = 0.9022 | 221
353.15 K, 100 kPa, x1 = 0.9022 | 79

CCC(=O)[O-].C[n+]1ccn(CCO)c1 + O
100 kPa
Details | viscosity [mPa·s]
298.15 K, x1 = 0.7595 | 94.2
298.15 K, x1 = 0.8421 | 117
308.15 K, x1 = 0.8991 | 75.9
318.15 K, x1 = 0.8421 | 40.3
323.15 K, x1 = 0.8083 | 31.9
323.15 K, x1 = 0.8991 | 34.8
328.15 K, x1 = 0.8083 | 27
328.15 K, x1 = 0.9102 | 30.5
333.15 K, x1 = 0.8991 | 23.6

CCCCCCCCCCCCCC[n+]1ccccc1.O=C([O-])C(O)c1ccccc1 + O
electrical conductivity [S/m], 101 kPa
Details | 293.15 K | 298.15 K | 303.15 K | 308.15 K | 313.15 K
x1 = 6.85e-06 | 0.00248 | 0.00278 | 0.00309 | 0.0034 | 0.0037
x1 = 1.424e-05 | 0.00472 | 0.00529 | 0.00587 | 0.0065 | 0.0071
x1 = 2.126e-05 | 0.00671 | 0.0076 | 0.0084 | 0.0093 | 0.0101
x1 = 2.811e-05 | 0.0086 | 0.0097 | 0.0108 | 0.0122 | 0.0131
x1 = 3.46e-05 | 0.0103 | 0.0116 | 0.0129 | 0.0145 | 0.0157
x1 = 4.108e-05 | 0.0117 | 0.0131 | 0.0146 | 0.0161 | 0.0179
x1 = 4.811e-05 | 0.0129 | 0.0144 | 0.0161 | 0.0179 | 0.0198
x1 = 5.388e-05 | 0.0137 | 0.0154 | 0.0172 | 0.0191 | 0.0211
x1 = 5.982e-05 | 0.0145 | 0.0163 | 0.0182 | 0.0202 | 0.0224
x1 = 6.559e-05 | 0.0153 | 0.0172 | 0.0192 | 0.0213 | 0.0236
x1 = 7.081e-05 | 0.016 | 0.018 | 0.02 | 0.0223 | 0.0246
x1 = 7.604e-05 | 0.0167 | 0.0187 | 0.0209 | 0.0232 | 0.0258
x1 = 8.072e-05 | 0.0173 | 0.0194 | 0.0217 | 0.0241 | 0.0266

CCCCCCCCCCCCOS(=O)(=O)[O-].CCCC[n+]1ccn(C)c1 + O
Details | viscosity [mPa·s]
333 K, 101 kPa, x1 = 0.06262 | 970000

CCCCCCCCCCOS(=O)(=O)[O-].CC[n+]1ccn(C)c1 + O
101 kPa, frequency 0.0005 MHz, x1 = 0.075
Details | electrical conductivity [S/m]
308.15 K | 2.87
363.15 K | 6.86

CCCCCCCC[N+](CC)(CC)CC.O=S(=O)([N-]S(=O)(=O)C(F)(F)F)C(F)(F)F + O
101 kPa, x2 = 0.1435
Details | viscosity
318.05 K | 36.51 mPa·s and 55.8 mPa·s
323.05 K | 29.74 mPa·s

CCCC[N+](CCCC)(CCCC)Cc1ccccc1.[Cl-] + O
electrical conductivity [S/m], frequency 0.001 MHz
Details | 293.15 K | 298.15 K | 303.15 K | 308.15 K | 313.15 K | 318.15 K
100 kPa, x1 = 1.802e-05 | 0.0056 | 0.0105 | 0.0171 | 0.0235 | 0.0329 | –
100 kPa, x1 = 5.406e-05 | 0.0129 | 0.0203 | 0.0243 | 0.0288 | 0.0396 | –
100 kPa, x1 = 9.009e-05 | 0.0172 | 0.0255 | 0.0327 | 0.0349 | 0.0468 | –
101.3 kPa, x1 = 1.802e-05 | – | 0.0104 | – | 0.0139 | – | 0.0173
101.3 kPa, x1 = 5.406e-05 | – | 0.0231 | – | 0.0284 | – | 0.0345
101.3 kPa, x1 = 9.009e-05 | – | 0.0367 | – | 0.0457 | – | 0.0546

viscosity [mPa·s]
Details | 293.15 K | 298.15 K | 303.15 K | 308.15 K | 318.15 K
100 kPa, x1 = 1.802e-05 | 0.953 | 0.913 | 0.876 | – | –
100 kPa, x1 = 5.406e-05 | 0.961 | 0.921 | 0.88 | – | –
100 kPa, x1 = 9.009e-05 | 0.972 | 0.93 | – | – | –
101.3 kPa, x1 = 1.802e-05 | – | 0.906 | – | 0.775 | 0.643
101.3 kPa, x1 = 5.406e-05 | – | 0.923 | – | 0.793 | 0.659
101.3 kPa, x1 = 9.009e-05 | – | 0.942 | – | – | –

CC[n+]1ccccc1.O=S(=O)([N-]S(=O)(=O)C(F)(F)F)C(F)(F)F + O
viscosity [mPa·s], 101 kPa
Details | 298.15 K | 323.15 K | 343.15 K | 353.15 K
x2 = 0.005125 | – | 17.8 | – | 8.68
x2 = 0.08693 | 34.1 | 15.47 | 9.7 | –

CCO + O + CCCCCCCCCCCCOS(=O)(=O)[O-].[Na+]
298 K, 100 kPa, frequency 0.001 MHz
Details | electrical conductivity [S/m]
x1 = 0.01596, x3 = 0 | 0.00025
x1 = 0.02563, x2 = 0.9744 | 0.00026
x1 = 0.04623, x2 = 0.9538 | 0.00029
x1 = 0.06864, x2 = 0.9314 | 0.00031
x1 = 0.1203, x2 = 0.8797 | 0.00025
x1 = 0.1463, x2 = 0.8537 | 0.00025

CCC[N+]1(C)CCCCC1.[Br-] + O + CCCC[N+]1(C)CCCCC1.[Br-]
101 kPa
Details | viscosity [mPa·s]
298.15 K, x1 = 0.00449, x3 = 0.004485 | 1.305
298.15 K, x2 = 0.9578, x1 = 0.01421 | 2.565
303.15 K, x1 = 0.00449, x3 = 0.004485 | 1.135
303.15 K, x2 = 0.9577, x1 = 0.02117 | 2.165
303.15 K, x2 = 0.9734, x1 = 0.00893 | 1.615
308.15 K, x2 = 0.9733, x1 = 0.01334 | 1.355

CCCC[N+]1(C)CCCCC1.[Br-] + O + CC[N+]1(C)CCCCC1.[Br-]
101 kPa
Details | viscosity [mPa·s]
293.15 K, x2 = 0.9577, x3 = 0.02117 | 2.805
293.15 K, x3 = 0.005974, x1 = 0.002995 | 1.365
298.15 K, x2 = 0.9734, x3 = 0.00893 | 1.815
308.15 K, x2 = 0.9578, x3 = 0.0142 | 1.845

CCC[N+]1(C)CCCCC1.[Br-] + O + CC[N+]1(C)CCCCC1.[Br-]
Details | viscosity [mPa·s]
293.15 K, 101 kPa, x3 = 0.00299, x1 = 0.005976 | 1.575

CCCC[N+](CCCC)(CCCC)Cc1ccccc1.[Cl-] + O=C(O)[C@@H]1CCCN1 + O
electrical conductivity [S/m], 101 kPa
Details | 298.15 K | 303.15 K | 308.15 K
x2 = 1.802e-05, x1 = 1.802e-05 | 0.0132 | 0.0149 | 0.0164
x2 = 1.804e-05, x1 = 5.406e-05 | 0.0279 | 0.0297 | 0.0314
x2 = 1.805e-05, x1 = 9.009e-05 | 0.0321 | 0.0338 | 0.0353
x2 = 4.506e-05, x1 = 1.802e-05 | 0.0156 | 0.0164 | 0.0176
x2 = 4.509e-05, x1 = 5.405e-05 | 0.0298 | 0.0313 | 0.0329
x2 = 4.511e-05, x1 = 9.009e-05 | 0.0339 | 0.0356 | 0.0372
x2 = 7.21e-05, x1 = 1.802e-05 | 0.0169 | 0.0183 | 0.0197
x2 = 7.214e-05, x1 = 5.405e-05 | 0.0314 | 0.0327 | 0.0341
x2 = 7.218e-05, x1 = 9.009e-05 | 0.0353 | 0.0367 | 0.0387
x2 = 9.913e-05, x1 = 1.802e-05 | 0.0184 | 0.0206 | 0.0213
x2 = 9.919e-05, x1 = 5.405e-05 | 0.0329 | 0.0335 | 0.0354
x2 = 9.925e-05, x1 = 9.008e-05 | 0.0368 | 0.0383 | 0.0409
x2 = 0.0001262, x1 = 1.802e-05 | 0.0209 | 0.0219 | 0.0229
x2 = 0.0001262, x1 = 5.405e-05 | 0.0337 | 0.0349 | 0.0366
x2 = 0.0001263, x1 = 9.008e-05 | 0.0384 | 0.0398 | 0.0423
x2 = 0.0001532, x1 = 1.802e-05 | 0.0223 | 0.0239 | 0.0251
x2 = 0.0001533, x1 = 5.405e-05 | 0.0345 | 0.0358 | 0.0381
x2 = 0.0001534, x1 = 9.008e-05 | 0.0395 | 0.0416 | 0.0445

CCCC[N+](CCCC)(CCCC)Cc1ccccc1.[Cl-] + O=C([O-])C1=NN(c2ccc(S(=O)(=O)[O-])cc2)C(=O)C1N=Nc1ccc(S(=O)(=O)[O-])cc1.[Na+].[Na+].[Na+] + O
electrical conductivity [S/m], 101.3 kPa, frequency 0.001 MHz
Details | 298.15 K | 308.15 K | 318.15 K
x2 = 0, x1 = 1.802e-05 | 0.0104 | 0.0139 | 0.0173
x2 = 0, x1 = 5.406e-05 | 0.0231 | 0.0284 | 0.0345
x2 = 0, x1 = 9.009e-05 | 0.0367 | 0.0457 | 0.0546

viscosity [mPa·s], 101.3 kPa
Details | 298.15 K | 308.15 K | 318.15 K
x2 = 0, x1 = 1.802e-05 | 0.906 | 0.775 | 0.643
x2 = 0, x1 = 5.406e-05 | 0.923 | 0.793 | 0.659
x2 = 0, x1 = 9.009e-05 | 0.942 | – | –

CC(C)C[P+](C)(CC(C)C)CC(C)C.Cc1ccc(S(=O)(=O)[O-])cc1 + O=S1(=O)CCCC1
101.33 kPa, x1 = 0.5
Details | viscosity [mPa·s]
303.18 K | 216
313.18 K | 122
323.15 K | 69
333.13 K | 44.4
343.09 K | 27.4
353.11 K | 18.5

CCCCCC[N+]1(C)CCCC1.O=S(=O)([N-]S(=O)(=O)C(F)(F)F)C(F)(F)F + O=S1(=O)CCCC1
101.33 kPa, x1 = 0.5
Details | viscosity [mPa·s]
303.25 K | 30.7
313.25 K | 22.1
323.25 K | 16.4
333.15 K | 12.2
343.15 K | 9
353.15 K | 7.2

CCC(=O)OC + O=S(=O)([N-]S(=O)(=O)C(F)(F)F)C(F)(F)F.[Li+]
298.1 K, 100 kPa, x2 = 0.333
Details | electrical conductivity [S/m] | viscosity [mPa·s]
– | 0.23 | 21.6

O=S(=O)([N-]S(=O)(=O)C(F)(F)F)C(F)(F)F.[Rb+] + O=S(=O)([N-]S(=O)(=O)C(F)(F)F)C(F)(F)F.[Li+]
100 kPa, x2 = 0.25
Details | viscosity [mPa·s]
452.5 K | 47.7
463 K | 36.9
483.1 K | 22.7
523.6 K | 10.2
531.9 K | 8.55

100 kPa, frequency 1 MHz, x2 = 0.25
Details | electrical conductivity [S/m]
512.5 K | 2.82
531.5 K | 3.59

CCC(=O)OC + O=S(=O)([N-]S(=O)(=O)C(F)(F)F)C(F)(F)F.[Li+] + COC(=O)OC
298.15 K, 100 kPa
Details | viscosity [mPa·s]
x2 = 0.333, x3 = 0 | 21.6
x2 = 0.333, x3 = 0.3335 | 38.6

Reference: the CheMixHub ionic liquid set
